“Also recorded” adds a separate entry of the source.
Legend:
[1] = cited from earlier work; for interconversion in solvent systems or at higher relative humidity: interconversion studies; for hygroscopicity: polymorphic form of 3-(4-amino-1-oxo-1,3 dihydro-isoindol-2-yl)-piperidene-2,6-dione; for relative stability among polymorphs: Form A: among anhydrous polymorphs, Form E: in aqueous solvent systems; for conversion upon heating (desolvation experiments): Form E: about 125° C. for about five minutes, Form B: 175° C. for about five minutes
[2] = system: CD34+ hematopoietic stem cells from a healthy donor; assay: Fetal hemoglobin expression in CD34+ cells from a healthy donor differentiated towards erythrocytes; assay type: cell-based; settings: for percentage of HbF expressing cells: compound alone, healthy donor, after 6 days of culture, in a dose dependent manner; for effect of combination with HU on HbF expression: healthy (normal) donor, HU at 10 μM added to the growth cocktail, 6 days, FIG. 15
Description: (§1) Namalwa were cultured in RPMI-1640 media (Invitrogen, Carlsbad) supplemented with 10% fetal bovine serum, penicillin (100 u/ml) and streptomycin (100 μg/ml). CD34^+ cells were expanded in serum free conditions in Iscove's DMEM (Invitrogen, Carlsbad, Calif.) supplemented with 20% serum substitute BIT (StemCell Techologies, Vancouver, BC) in the presence of SCF (100 ng/ml), Flt3-L (100 ng/ml) and IL-3 (20 ng/ml) (Biosource International, Camarillo, Calif.). Namalwa cells and CD34+ cells were cultured for 3 and 6 days, respectively. DMSO 0.1%, Comp. 1 or Comp. 2, valproic acid (VPA) or trichostatin A (TSA) at the concentration indicated were added during the 3 or 6 days of culture. BM-CD34+ cells were cultured in Iscove's MDM with BIT 95000 (StemCell technologies) in the presence of growth factors. During the first 6 days CD34^+ cells were expanded with SCF (100 ng/ml), Flt3-L (100 ng/ml), and IL-3 (20 ng/ml) and then differentiated toward the erythroid lineage by culture with SCF (50 ng/ml) and EPO (2U or 4 U/ml) for 6 days. To study the effect of immunomodulatory compounds, CD34^+ progenitor cells were differentiated for a period of 6 days in the presence or absence of Comp. 1, Comp. 2 or hydroxyurea (HU).
(§2) After 6 days of culture, cells were washed with phosphate-buffered saline (PBS), fixed with 2% paraformaldehyde, permeabilized with cytopermeafix (BD-pharmingen), stained with HbF-PE (BD Pharmingen, San Diego, Calif.) and analyzed by flow cytometry (FACSAria, BD pharmingen).

[3] = system: Namalwa cells (human Burkitt Lymphoma); assay: Namalwa cell proliferation (cell count by flow cytometry; BrDu incorporation); assay type: cell-based; settings: 3 days; for effect of combination with VPA on cell proliferation arrest: FIGS. 3 and 5
Description: as §1
(§3) Namalwa and CD34^+ cells were plated at 4000 and 2000 cells per well, respectively into 96-well plate and treated with compound. After the time indicated, cells were counted and phenotypically analyzed by flow cytometry using the FACSarray. The percentage of apoptotic cells and CD34^+ cells were monitored using Propidium iodide staining (BD pharmingen, Chicago, Ill.) and the antibody anti-CD34 (PE-conjugated) (BD pharmingen), respectively, according to the manufacturer experimental procedure.
Namalwa cells were plated at 10,000 cells per well in 96 well plates and treated with TSA and Comp. 1 at the concentration indicated for 3 days. The effects of TSA and Comp. 1 on cell proliferation were measured using BrDu incorporation kit (Roche, Germany).

[4] = system: Namalwa cells (human Burkitt Lymphoma); assay: Namalwa cell apoptosis (Propidium iodide staining, flow cytometry); assay type: cell-based; settings: 3 days; for effect of combination with VPA on inducing apoptosis: FIGS. 4 and 6
Description: as §1, §3

cord blood CD34+ cells = assay: Expansion of cord blood-derived CD34+ cells (cell count and anti-CD34 flow cytometry); assay type: cell-based; settings: for effects of combination with TSA on CD34+ expansion, CD34+ cell number / effects of combination with TSA on CD34+ expansion, percent of CD34+ cells / effects of combination with VPA on CD34+ expansion, CD34+ cell number / effects of combination with VPA on CD34+ expansion, percent of CD34+ cells / number of CD34+ cells / percent of CD34+ cells: after 6 days of culture; for effects of combination with TSA on CD34+ expansion, CD34+ cell number: FIGS. 7 and 9; for effects of combination with TSA on CD34+ expansion, percent of CD34+ cells: FIGS. 8 and 10; for effects of combination with VPA on CD34+ expansion, CD34+ cell number: FIGS. 11 and 13; for effects of combination with VPA on CD34+ expansion, percent of CD34+ cells: FIGS. 12 and 14; for number of CD34+ cells / percent of CD34+ cells: compound alone, in a dose dependent manner; for kind of combination effect with VPA on CD34+ expansion (number and percent): tables in FIGS. 11-14
Description: as §1, §3

[5] = system: CD34+ cells from sickle cell anemic patient (SCA); assay: Fetal hemoglobin expression in CD34+ cells from sickle cell anemic patient differentiated towards erythrocytes; assay type: cell-based
Description: Namalwa CSN.70 cells were purchased from DSMZ (Brauschweig, Germany). Bone marrow and cord blood CD34^+ cells were purchased Cambrex (Walkersville, Md.) and AllCells (Emeryville, Calif.), respectively. Bone marrow CD34+ cells from Sickle Cell Anemic (SCA) patient were provided by Christopher Morris (Loma Linda University Medical Center, CA).
Namalwa were cultured in RPMI-1640 media (Invitrogen, Carlsbad) supplemented with 10% fetal bovine serum, penicillin (100 u/ml) and streptomycin (100 μg/ml). CD34^+ cells were expanded in serum free conditions in Iscove's DMEM (Invitrogen, Carlsbad, Calif.) supplemented with 20% serum substitute BIT (StemCell Techologies, Vancouver, BC) in the presence of SCF (100 ng/ml), Flt3-L (100 ng/ml) and IL-3 (20 ng/ml) (Biosource International, Camarillo, Calif.). Namalwa cells and CD34+ cells were cultured for 3 and 6 days, respectively. DMSO 0.1%, Comp. 1 or Comp. 2, valproic acid (VPA) or trichostatin A (TSA) at the concentration indicated were added during the 3 or 6 days of culture. […]
as §2

Nc1cccc2c1CN(C1CCC(=O)NC1=O)C2=O (stereo not drawn) [Form D, 3-(4-amino-1-oxo-1,3 dihydro-isoindol-2-yl)-piperidene-2,6-dione]
interconversion in solvent systems or at higher relative humidity [1]: convert to Form B when stressed at higher relative humidities | hygroscopicity [1]: either weakly or not hygroscopic

Nc1cccc2c1CN(C1CCC(=O)NC1=O)C2=O (stereo not drawn) [Form A, 3-(4-amino-1-oxo-1,3 dihydro-isoindol-2-yl)-piperidene-2,6-dione]
relative stability among polymorphs [1]: most thermodynamically stable anhydrous polymorph | hygroscopicity [1]: weakly or not hygroscopic

Nc1cccc2c1CN(C1CCC(=O)NC1=O)C2=O (stereo not drawn) [Form C, 3-(4-amino-1-oxo-1,3 dihydro-isoindol-2-yl)-piperidene-2,6-dione]
interconversion in solvent systems or at higher relative humidity [1]: can convert to Form B at higher relative humidities | hygroscopicity [1]: not hygroscopic below about 85% RH

Nc1cccc2c1CN(C1CCC(=O)NC1=O)C2=O (stereo not drawn) [Compound 2, 3-(4-amino-1-oxo-1,3-dihydro-isoindol-2-yl)-piperidine-2,6-dione]
percentage of HbF expressing cells [2]: increased | effect of combination with HU on HbF expression [2]: significantly improved the effect of Compound 1 and Compound 2 on HbF expression in a synergistic manner | effect of combination with VPA on cell proliferation arrest [3]: synergistic and additive; also recorded: additive and synergistic | effect of combination with VPA on inducing apoptosis [4]: synergistic and additive; also recorded: additive and synergistic | effect of the addition of TSA on the compound's effect on CD34+ expansion (cord blood CD34+ cells; TSA at 1 and 10 nM added to the growth cocktail, 6 days): significantly improved | effect of the addition of VPA on the compound's effect on CD34+ expansion (cord blood CD34+ cells; VPA at 0.1 and 0.3 mM added to the growth cocktail, 6 days): significantly improved | effects of combination with TSA on CD34+ expansion, CD34+ cell number (cord blood CD34+ cells): additive and synergistic | effects of combination with TSA on CD34+ expansion, percent of CD34+ cells (cord blood CD34+ cells): additive and synergistic | effects of combination with VPA on CD34+ expansion, CD34+ cell number (cord blood CD34+ cells): additive and synergistic | effects of combination with VPA on CD34+ expansion, percent of CD34+ cells (cord blood CD34+ cells): additive and synergistic | number of CD34+ cells (cord blood CD34+ cells): increased | percent of CD34+ cells (cord blood CD34+ cells): increased | kind of combination effect with VPA on CD34+ expansion (number and percent) (cord blood CD34+ cells; 6 days): additive to Compound 2, and in some conditions, a synergistic effect was observed

Nc1cccc2c1CN(C1CCC(=O)NC1=O)C2=O (stereo not drawn) [Form E, 3-(4-amino-1-oxo-1,3 dihydro-isoindol-2-yl)-piperidene-2,6-dione]
relative stability among polymorphs [1]: most stable form | conversion upon heating (desolvation experiments) [1]: can convert to Form B | interconversion in solvent systems or at higher relative humidity [1]: can convert to Form C in an acetone solvent system and to Form G in a THF solvent system

Nc1cccc2c1CN(C1CCC(=O)NC1=O)C2=O (stereo not drawn) [Form B, 3-(4-amino-1-oxo-1,3 dihydro-isoindol-2-yl)-piperidene-2,6-dione]
conversion upon heating (desolvation experiments) [1]: can convert to Form F | interconversion in solvent systems or at higher relative humidity [1]: converts to Form E in aqueous solvent systems, and converts to other forms in acetone and other anhydrous systems

Nc1cccc2c1C(=O)N(C1CCC(=O)NC1=O)C2=O (stereo not drawn) [Compound 1, 4-(amino)-2-(2,6-dioxo(3-piperidyl))-isoindoline-1,3-dione]
effect of combination with HU on HbF expression ([5]; HU at 10 μM added to the growth cocktail, 6 days, FIG. 16): significantly improved the effect of Compound 1 on HbF expression in a synergistic manner | percentage of HbF expressing cells ([5]; compound alone, after 6 days of culture, in a dose dependent manner): increased | percentage of HbF expressing cells [2]: increased | effect of combination with HU on HbF expression [2]: significantly improved the effect of Compound 1 and Compound 2 on HbF expression in a synergistic manner | effect of combination with VPA on cell proliferation arrest [3]: synergistic and additive; also recorded: additive and synergistic | effect of combination with TSA on cell proliferation arrest ([3]; TSA at 10 nM, FIG. 1): synergistic and additive | effect of combination with VPA on inducing apoptosis [4]: synergistic and additive; also recorded: additive and synergistic | effect of combination with TSA on inducing apoptosis ([4]; TSA at 10 nM, FIG. 2): synergistic and additive | effect of the addition of TSA on the compound's effect on CD34+ expansion (cord blood CD34+ cells; TSA at 10 nM added to the growth cocktail, 6 days): significantly improved | effect of the addition of VPA on the compound's effect on CD34+ expansion (cord blood CD34+ cells; VPA at 0.1, 0.3 and 1 mM added to the growth cocktail, 6 days): significantly improved | effects of combination with TSA on CD34+ expansion, CD34+ cell number (cord blood CD34+ cells): additive and synergistic | effects of combination with TSA on CD34+ expansion, percent of CD34+ cells (cord blood CD34+ cells): additive and synergistic | effects of combination with VPA on CD34+ expansion, CD34+ cell number (cord blood CD34+ cells): additive and synergistic | effects of combination with VPA on CD34+ expansion, percent of CD34+ cells (cord blood CD34+ cells): additive and synergistic | number of CD34+ cells (cord blood CD34+ cells): increased | percent of CD34+ cells (cord blood CD34+ cells): increased | kind of combination effect on CD34+ expansion (number and percent), partner printed as VPA (cord blood CD34+ cells; tables in FIGS. 7-10, which belong to the TSA experiments, 6 days): additive to Compound 1, and in some conditions, a synergistic effect was observed | kind of combination effect with VPA on CD34+ expansion (number and percent) (cord blood CD34+ cells; 6 days): additive to Compound 1, and in some conditions, a synergistic effect was observed
